Where two headings read alike, the source gives them in different places.
Legend:
bone resorption = assay type: in vivo, rat (Sprague-Dawley female); settings: equimolar weekly i.v. doses
Procedure: Lysylpyridinoline concentration is a measure of the breakdown of bone collagen.
Effect of PGE2 /ABP (IIIa) on bone resorption estimated by urinary excretion of lysypyridinoline in the rat
4 week old Sprague-Dawley female rats were injected intravenously via the tail vein with equimolar weekly doses of ABP (1 mg/kg, n=5), PGE2 /ABP (2.4 mg/kg, n=5), PGE2 (1.4 mg/kg, n=5), or saline (n=4) each. Filtered urine was collected after 12 and 26 days by housing individual rats in metabolic cages and providing them with food and water ad libitum. The overnight collections of urine were centrifuged at 1000×g for 10 minutes to remove any particles and the supernatant fluid was stored at -80° C. until analysis. Lysylpyridinoline (LP) was extracted from duplicate 1 ml aliquots by acid hydrolysis and subsequent low pressure CF-1 chromatography according to the method of Beardsworth et al. (1990). LP was further resolved by high pressure liquid chromatography according to the method of Uebelhart et al. (1990) and quantitated by comparison with an external standard. Urinary creatinine was measured using the picric acid colorimetric assay (Pharmacia Diagnostics Inc., Fairfield, N.J.). Final results were expressed as pmoles LP per μmole creatinine. […]

[1] = system: bone loss due to limb immobilization; assay: Effects on bone loss due to limb immobilization in the rat (unilateral sciatic neurectomy, femoral ash weight); assay type: in vivo, rat (Sprague-Dawley male); settings: s.c. on two consecutive days before neurectomy; femoral ash weight difference, ten days post-neurectomy; ABP 0.5 mg/kg, PGE2/ABP 1.2 mg/kg, PGE2 0.7 mg/kg; n=6
Procedure: ABP, PGE2 /ABP, and PGE2 effects on bone loss due to limb immobilization in the rat
Male Sprague-Dawley rats weighing 270 grams (10-12 wks) were injected subcutaneously on two consecutive days prior to unilateral sciatic neurectomy induced hindlimb immobilization with the following doses: Vehicle (0.0 mg/kg), ABP (0.5mg/kg), PGE2 /ABP (1.2 mg/kg), PGE2 (0.7 mg/kg). Ten days post-neurectomy femora were removed at necropsy, dissected from the musculature, and placed in crucibles for incineration at 700° C. for twenty-four hours. Following incineration, the femoral ash content was weighed to the nearest 0.1 mg and the femoral ash weight differences between the control and immobilized hindlimb were calculated. Data represent mean ±SEM (n=6).

[2] = 1, 3 and 6 mg of PGE2/Kg/day, cited from earlier work
[3] = cited from earlier work
[4] = cited from earlier work; remark: listed apart in the source
[5] = cited from earlier work; remark: listed apart in the source
[6] = administered systemically; cited from earlier work
bone formation = settings: systemic injection; cited from earlier work
[7] = long term s.c. administration; cited from earlier work

Row | Structure (SMILES) | urinary lysylpyridinoline (LP) level versus vehicle (bone resorption; 12 days) | urinary lysylpyridinoline (LP) level versus vehicle (bone resorption; 26 days) | prevention of bone loss accompanying limb immobilization [1] | hard tissue mass ([2]; secondary spongiosa of proximal tibial metaphysis) | number of trabeculae [2] | periosteal and corticoendosteal bone mass ([3]; daily administration) | bone activity ([3]; s.c., 60, 120, and 180 days) | tibial diaphyseal bone mass ([3]; s.c., 60, 120, and 180 days) | serum phosphate levels ([4]; 1 mg of PGE2, rats) | side effects ([4]; s.c., rats, doses of 3 mg/Kg/day or higher) | side effects after oral dosing [5] | serum alkaline phosphatase levels ([5]; oral) | half-life [6] | bone formation in vivo (bone formation) | soft tissue weight [7]
1 | NCCCC(O)(P(=O)([O-])[O-])P(=O)(O)O.[Na+].[Na+] [ABP, 4-amino-1-hydroxybutylidene bisphosphonic acid disodium salt] | lower levels of LPs | lower levels of LPs | effective |  |  |  |  |  |  |  |  |  |  |  | 
2 | CCCCC[C@H](O)/C=C/[C@H]1[C@H](O)CC(=O)[C@@H]1C/C=C\CCCC(=O)O [PGE2] |  |  | no statistical difference | increase in hard tissue mass | increase in the number of trabeculae | increases periosteal and corticoendosteal bone mass and sustains the transient increase in bone mass | elevated bone activity | increased tibial diaphyseal bone mass | significant decreases | diarrhea and flushing of the extremities along with weight loss | loose stools, diarrhea, vomiting, infected sclerae | increased serum alkaline phosphatase levels | short half-life | stimulated | soft tissue weight increases in adrenal glands, liver, kidneys, and lungs
